pIC50: −log10 of the molar value.
What follows are compounds tested against EGFR (human) (UniProt P00533) (assay: not given).
Chain of EGFR (human) (P00533 whole entry, looked up): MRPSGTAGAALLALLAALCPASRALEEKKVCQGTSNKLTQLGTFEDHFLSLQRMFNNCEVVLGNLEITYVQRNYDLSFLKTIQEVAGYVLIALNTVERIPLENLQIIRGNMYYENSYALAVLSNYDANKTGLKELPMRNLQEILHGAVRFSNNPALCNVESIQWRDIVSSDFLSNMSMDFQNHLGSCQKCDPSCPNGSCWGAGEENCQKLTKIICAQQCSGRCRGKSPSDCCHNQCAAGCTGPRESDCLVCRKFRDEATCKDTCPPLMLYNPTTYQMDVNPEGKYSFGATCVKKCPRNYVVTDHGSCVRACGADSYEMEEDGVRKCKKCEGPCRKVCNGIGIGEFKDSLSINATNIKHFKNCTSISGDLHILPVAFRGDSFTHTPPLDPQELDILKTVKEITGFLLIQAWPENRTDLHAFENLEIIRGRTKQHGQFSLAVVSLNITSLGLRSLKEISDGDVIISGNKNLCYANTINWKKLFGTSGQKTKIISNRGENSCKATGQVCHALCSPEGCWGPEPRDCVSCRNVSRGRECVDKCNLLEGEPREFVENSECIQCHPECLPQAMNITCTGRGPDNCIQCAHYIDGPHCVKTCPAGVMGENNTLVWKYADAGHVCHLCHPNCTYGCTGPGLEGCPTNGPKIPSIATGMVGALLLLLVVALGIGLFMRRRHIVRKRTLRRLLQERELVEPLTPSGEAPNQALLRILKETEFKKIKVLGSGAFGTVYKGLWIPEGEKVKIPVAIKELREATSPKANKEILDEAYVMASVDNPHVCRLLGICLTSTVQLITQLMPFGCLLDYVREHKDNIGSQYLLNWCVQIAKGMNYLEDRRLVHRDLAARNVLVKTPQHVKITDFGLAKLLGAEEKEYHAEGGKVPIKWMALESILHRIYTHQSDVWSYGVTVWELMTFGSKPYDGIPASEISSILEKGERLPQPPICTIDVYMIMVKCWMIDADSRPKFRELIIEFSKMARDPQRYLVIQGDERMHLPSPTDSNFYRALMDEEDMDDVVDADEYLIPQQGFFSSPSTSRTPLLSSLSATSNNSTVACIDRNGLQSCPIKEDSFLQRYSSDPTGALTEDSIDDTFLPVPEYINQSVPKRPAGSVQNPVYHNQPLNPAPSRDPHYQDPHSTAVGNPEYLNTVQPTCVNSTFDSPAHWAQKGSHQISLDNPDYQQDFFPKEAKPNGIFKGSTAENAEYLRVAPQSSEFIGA

pIC50 | SMILES
6.94 | N#Cc1ccc(NC(=O)c2sc3ncnc4c3c2NC(=O)N4c2ccc(F)c(Cl)c2)cn1
6.96 | O=C(Nc1ccc(CN2CCCCC2)cc1)c1sc2ncnc3c2c1NC(=O)N3c1ccc(Cc2ccccc2)cc1
5.77 | O=C(O)c1sc2ncnc3c2c1NC(=O)N3c1ccc(F)c(Cl)c1
6.77 | CC(C)(C)OC(=O)N1CCC(Cc2ccc(NC(=O)c3sc4ncnc5c4c3NC(=O)N5c3ccc4c(ccn4Cc4cccc(F)c4)c3)cc2)CC1
7.36 | O=C(Nc1ccc(CNC[C@@H]2CCCO2)cc1)c1sc2ncnc3c2c1NC(=O)N3c1ccc(F)c(Cl)c1

These compounds were tested against MAPK14 (UniProt Q16539) (assay: Inhibition of MAPK Kinase Activity).
Chain of MAPK14 (Q16539 whole entry, looked up): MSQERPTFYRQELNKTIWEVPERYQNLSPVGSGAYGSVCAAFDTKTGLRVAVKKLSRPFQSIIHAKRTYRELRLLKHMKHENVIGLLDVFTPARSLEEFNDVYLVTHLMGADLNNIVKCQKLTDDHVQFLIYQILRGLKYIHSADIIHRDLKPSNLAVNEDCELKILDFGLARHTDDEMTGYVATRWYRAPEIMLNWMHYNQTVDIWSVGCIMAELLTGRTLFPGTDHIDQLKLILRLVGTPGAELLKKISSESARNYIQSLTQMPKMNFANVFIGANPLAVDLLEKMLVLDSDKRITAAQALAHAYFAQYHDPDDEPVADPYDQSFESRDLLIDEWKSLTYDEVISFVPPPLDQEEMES

pIC50 | SMILES
< 5.00 | OCCCNc1cncc(-c2cncc(Nc3cccc(Cl)c3)n2)c1
< 5.00 | Clc1cccc(Nc2cncc(-c3cncc(NCCCn4cccn4)c3)n2)c1
< 5.00 | CN(C)CCNc1cncc(-c2cncc(Nc3cccc(Cl)c3)n2)c1
< 5.00 | Clc1cccc(Nc2cncc(-c3cncc(NCCCn4cncn4)c3)n2)c1
< 5.00 | Clc1cccc(Nc2cncc(-c3cncc(NCCCc4cccnc4)c3)n2)c1
< 5.00 | OCCCCNc1cncc(-c2cncc(Nc3cccc(Cl)c3)n2)c1

SMILES | pIC50
N[C@H](COc1cncc(-c2cc3cn[nH]c3cn2)c1)Cc1c[nH]c2ccccc12 | 6.12
N[C@H](COc1cncc(-c2ccc3[nH]ncc3c2)c1)Cc1c[nH]c2ccccc12 | 4.92

What follows are compounds tested against EGFR (UniProt P00533) (assay: not given).
Chain of EGFR (P00533 whole entry, looked up): as the sequence (P00533 whole entry, looked up) above

pIC50 | SMILES
< 3.40 | CC1=CCC[C@H]2[C@](C)(CC3=C(O)C(=O)C=C(N[C@H](CO)C(=O)O)C3=O)[C@@H](C)CC[C@]12C
< 3.40 | CC1=CCC[C@H]2[C@](C)(CC3=C(N[C@@H](CO)C(=O)O)C(=O)C=C(N[C@@H](CO)C(=O)O)C3=O)[C@@H](C)CC[C@]12C
3.77 | CC1=CCC[C@H]2[C@](C)(CC3=C(O)C(=O)C=C(N[C@@H](CO)C(=O)O)C3=O)[C@@H](C)CC[C@]12C
3.70 | CC1=CCC[C@H]2[C@](C)(CC3=C(O)C(=O)C=C(N[C@@H](C(=O)O)C(C)C)C3=O)[C@@H](C)CC[C@]12C
< 3.40 | CC1=CCC[C@H]2[C@](C)(CC3=C(O)C(=O)C=C(NCC(=O)O)C3=O)[C@@H](C)CC[C@]12C
3.70 | CC1=CCC[C@H]2[C@](C)(CC3=C(N[C@H](C(=O)O)[C@@H](C)O)C(=O)C=C(N[C@H](C(=O)O)[C@@H](C)O)C3=O)[C@@H](C)CC[C@]12C
3.60 | CC1=CCC[C@H]2[C@](C)(CC3=C(O)C(=O)C=C(N[C@H](C(=O)O)C(C)C)C3=O)[C@@H](C)CC[C@]12C
< 3.40 | CC1=CCC[C@H]2[C@](C)(CC3=C(O)C(=O)C=C(N[C@@H](C(=O)O)[C@@H](C)O)C3=O)[C@@H](C)CC[C@]12C

Molecular target: EGFR (human) (UniProt P00533)
Experiment: not given
Remark: another data set of the same source

pIC50 | SMILES
> 7.00 | CCNc1nc(-c2cccc(O)c2)c(-c2ccnc(Nc3ccc(OCCN4CCCC4)c(Cl)c3)n2)s1
> 7.00 | CCNc1nc(-c2cccc(OC)c2)c(-c2ccnc(Nc3ccc(OCCN(C)C)c(C)c3)n2)s1
> 7.00 | COCCNc1nc(-c2cccc(OC)c2)c(-c2ccnc(Nc3ccc(N4CCOCC4)c(Cl)c3)n2)s1
6.00 to 7.00 | Fc1cc(Nc2nccc(-c3sc(N4CCCC4)nc3-c3cccc(Cl)c3)n2)ccc1OCCN1CCCC1
6.00 to 7.00 | CCNc1nc(-c2cccc(OC)c2)c(-c2ccnc(Nc3ccc(OC4CCN(CCS(C)(=O)=O)CC4)c(F)c3)n2)s1
6.00 to 7.00 | COc1cc(-c2nc(N3CCCC3)sc2-c2ccnc(Nc3ccc(OCCN4CCCC4)c(F)c3)n2)ccc1Cl
> 7.00 | CCNc1nc(-c2cccc(OC)c2)c(-c2ccnc(Nc3ccc(OCCN4CCCC4)c(F)c3)n2)s1
> 7.00 | CCNc1nc(-c2cccc(Cl)c2)c(-c2ccnc(Nc3ccc(OCCN(C)C)c(Cl)c3)n2)s1

Molecular target: EGFR (UniProt P00533)
Experiment: not given
Remark: another data set of the same source

pIC50 | SMILES
5.30 to 9.00 | CNC(=O)[C@@H]1CN(Cc2cccc3ncnc(Nc4cccc(OC)c4)c23)CC[C@H]1N
5.30 to 9.00 | NC1CCN(Cc2cccc3ncnc(Nc4ccc(OCc5cccc(F)c5)c(Cl)c4)c23)CC1
5.30 to 9.00 | COc1cccc(Nc2ncnc3cccc(CN4CCC(N)CC4)c23)c1
5.30 to 9.00 | C#Cc1cccc(Nc2ncnc3cccc(CN4CC[C@@H](N)[C@H](CO)C4)c23)c1
5.30 to 9.00 | C#Cc1cccc(Nc2ncnc3cccc(CN4CC[C@@H](N)[C@H](O)C4)c23)c1
5.30 to 9.00 | N[C@@H]1CCN(Cc2cccc3ncnc(Nc4cccc(Cl)c4)c23)C[C@H]1O
5.30 to 9.00 | COc1cccc(Nc2ncnc3cccc(CN4CC[C@@H](N)[C@H](O)C4)c23)c1
5.30 to 9.00 | N[C@@H]1CCN(Cc2cccc3ncnc(Nc4ccc5c(cnn5Cc5cccc(F)c5)c4)c23)C[C@H]1O

Molecular target: EGFR (UniProt P00533)
Experiment: not given
Remark: another data set of the same source

inhibition | SMILES
1 | NCCc1cc(O)c(O)c(SC[C@H](NC(=O)CC[C@H](N)C(=O)O)C(=O)NCC(=O)O)c1
4.4 | N[C@@H](CCC(=O)N[C@@H](CSc1cc(C[C@H](N)C(=O)O)cc(O)c1O)C(=O)NCC(=O)O)C(=O)O
7.6 | NCCc1cc(SC[C@H](NC(=O)CC[C@H](N)C(=O)O)C(=O)NCC(=O)O)c(O)c(O)c1SC[C@H](NC(=O)CC[C@H](N)C(=O)O)C(=O)NCC(=O)O
5.2 | C[C@@](Cc1cc(O)c(O)c(SC[C@H](NC(=O)CC[C@H](N)C(=O)O)C(=O)NCC(=O)O)c1)(NC(=O)CCN)C(=O)O
8.2 | NCCC(=O)N[C@H](Cc1cc(O)c(O)c(SC[C@H](NC(=O)CC[C@H](N)C(=O)O)C(=O)NCC(=O)O)c1)C(=O)O
2.2 | NCCC(=O)N[C@@H](Cc1cc(O)c(O)c(SC[C@H](NC(=O)CC[C@H](N)C(=O)O)C(=O)NCC(=O)O)c1)C(=O)O
2.9 | N[C@@H](CSc1cc(C[C@H](N)C(=O)O)cc(O)c1O)C(=O)O
2.5 | NCCC(=O)N[C@@H](Cc1cc(O)c(O)c(SC[C@H](N)C(=O)O)c1)C(=O)O
4.9 | NCCC(=O)NCCc1cc(O)c(O)c(SC[C@H](NC(=O)CC[C@H](N)C(=O)O)C(=O)NCC(=O)O)c1
